Among the test systems are HCC-2998 colon; SF-295 CNS; TK-10 renal; SR leukemia; SNB-75 CNS; SNB-19 CNS; SW-620 colon; NCI-H23 lung; SF-539 CNS; SK-MEL-28 melanoma; UACC-62 melanoma; MDA-MB-435; RXF 393 renal.
What all share (test): growth of human tumour cells (NCI), 48 h

For ten compounds, TGI and GI50 results are on record in PubChem BioAssay (NCI).

Structures are written as SMILES. Several values for one entry are separate records, joined by “and”; a condition that tells them apart may be missing. Equal values may be shown once.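 Cells were grown in 96-well plates and exposed to each compound for 48 hours at five concentrations; endpoints were interpolated linearly between bracketing concentrations, or set to the highest concentration if not reached. GI50 = concentration required for 50% inhibition of growth. TGI: concentration producing complete growth inhibition.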

For `[O-]c1c2cc(-[n+]3c(-c4ccccc4)cc(-c4ccccc4)cc3-c3ccccc3)cc1COCCOCCOCCOCCOC2`, the TGI in the experiment with HCC-2998 colon was greater than 100 µM; in the experiment with SF-295 CNS it was greater than 100 µM; in the experiment on TK-10 renal it was greater than 100 µM; in the experiment on SR leukemia it was 65.7 µM; with SNB-75 CNS, greater than 100 µM; in the experiment with SNB-19 CNS it was greater than 100 µM. Further, the TGI is greater than 100 µM in the experiment with SW-620 colon; greater than 100 µM in the experiment with NCI-H23 lung; greater than 100 µM with SF-539 CNS; 46.7 µM in the experiment with SK-MEL-28 melanoma; 44.2 µM with UACC-62 melanoma.

On to `O=[N+]([O-])c1cccc2nc3ccccc3c(NCCCNc3c4ccccc4nc4cccc([N+](=O)[O-])c34)c12`, for which the TGI was 0.141 µM in the experiment with MDA-MB-435; 0.0223 µM with HCC-2998 colon; 1.5 µM in the experiment on SF-295 CNS; less than 0.01 µM in the experiment on RXF 393 renal; less than 0.01 µM with TK-10 renal; 0.277 µM in the experiment on SNB-75 CNS. In addition, the TGI in the experiment with SNB-19 CNS was 0.163 µM; with SW-620 colon, greater than 100 µM; in the experiment with NCI-H23 lung, 0.248 µM; with SF-539 CNS, 0.149 µM; in the experiment on SK-MEL-28 melanoma, 0.181 µM; with UACC-62 melanoma, 0.245 µM.

For the compound `C/C(=C\CBr)CCC(Br)C(C)(C)Cl` (configuration not stated), the TGI in the experiment on SF-295 CNS, in the experiment with RXF 393 renal, with TK-10 renal, in the experiment on SR leukemia, in the experiment on SNB-75 CNS and in the experiment with SW-620 colon was greater than 100 µM each time. In addition, the TGI in the experiment with NCI-H23 lung, in the experiment with SF-539 CNS, in the experiment on SK-MEL-28 melanoma and in the experiment on UACC-62 melanoma was greater than 100 µM each time.

With `[N-]=[N+]=NI1OC(=O)c2ccccc21`, the TGI in the experiment on MDA-MB-435, in the experiment with HCC-2998 colon, with SF-295 CNS, with RXF 393 renal, in the experiment on TK-10 renal and in the experiment with SR leukemia was greater than 100 µM each time. Besides, the TGI with SNB-75 CNS, in the experiment on SNB-19 CNS, with SW-620 colon, in the experiment on NCI-H23 lung, with SF-539 CNS and with SK-MEL-28 melanoma was greater than 100 µM throughout. The compound also gave a TGI with UACC-62 melanoma greater than 100 µM.

For the compound `O=[N+]([O-])c1ccc(OC2CC3C4C=CC3C2C4)c([N+](=O)[O-])c1` (configuration not stated), the TGI with MDA-MB-435 was greater than 100 µM; in the experiment on HCC-2998 colon, greater than 100 µM; in the experiment with SF-295 CNS it was 49.9 µM and > 31.6 µM; with RXF 393 renal, greater than 100 µM; with TK-10 renal, greater than 100 µM; with SNB-75 CNS it was 69.7 µM and > 31.6 µM. The TGI with SNB-19 CNS, in the experiment on SW-620 colon, with NCI-H23 lung, with SF-539 CNS, with SK-MEL-28 melanoma and in the experiment on UACC-62 melanoma was greater than 100 µM throughout. Further, the GI50 in the experiment on HCC-2998 colon is greater than 100 µM; in the experiment with SNB-75 CNS it was 34.5 µM; in the experiment on SW-620 colon, greater than 100 µM; in the experiment on NCI-H23 lung, > 100 µM and 26.8 µM; with SK-MEL-28 melanoma, greater than 100 µM; with UACC-62 melanoma it was 84.4 µM and > 31.6 µM.

Regarding `CCN(CC)c1ccc2c(c1)Oc1ccc(N(CC)CC)cc1C21Oc2ccccc2-c2c1c1ccccc1n2CC` (configuration not stated), the TGI with HCC-2998 colon, with SF-295 CNS, with RXF 393 renal, in the experiment with SR leukemia, in the experiment on SNB-75 CNS and in the experiment on SNB-19 CNS was greater than 100 µM each time. Moreover, the TGI with SW-620 colon is greater than 100 µM; in the experiment on NCI-H23 lung it was 8.01 µM; in the experiment with SK-MEL-28 melanoma, greater than 100 µM; in the experiment with UACC-62 melanoma, greater than 100 µM.

As for `CCC1OC2C(CC=C(C)C)=C3OC(C)(O)C(C)(CC)C(OC(C)=O)C3=C3OC(=O)C=C1C32` (configuration not stated), the TGI was 50.3 µM in the experiment on MDA-MB-435; 50.6 µM in the experiment with HCC-2998 colon; 42.2 µM in the experiment on SF-295 CNS; greater than 100 µM in the experiment with TK-10 renal; greater than 100 µM in the experiment with SR leukemia; 52.1 µM with SNB-75 CNS. The TGI in the experiment on SNB-19 CNS is 63.2 µM; in the experiment on SW-620 colon, greater than 100 µM; in the experiment on NCI-H23 lung, 75.5 µM; in the experiment with SF-539 CNS, 40.9 µM; in the experiment with SK-MEL-28 melanoma, 59.1 µM; with UACC-62 melanoma, 42.1 µM.

On to `C/C=C/C#CC#C/C=C/C=C/C(O)CCO` (configuration not stated), for which the TGI in the experiment on HCC-2998 colon, with SF-295 CNS, in the experiment with RXF 393 renal, with TK-10 renal, in the experiment on SR leukemia and in the experiment on SNB-75 CNS was greater than 23.1 µM throughout. Moreover, the TGI with SNB-19 CNS, with SW-620 colon, in the experiment with NCI-H23 lung, in the experiment on SF-539 CNS, with SK-MEL-28 melanoma and in the experiment with UACC-62 melanoma was greater than 23.1 µM throughout.

For the compound `CN(C)C(=NCc1ccccc1)NC#N`, the TGI with HCC-2998 colon, in the experiment on SF-295 CNS, in the experiment with TK-10 renal, in the experiment on SNB-19 CNS, with SW-620 colon and in the experiment with NCI-H23 lung was greater than 100 µM in each case. For the same compound, the TGI in the experiment with SF-539 CNS, in the experiment with SK-MEL-28 melanoma and in the experiment on UACC-62 melanoma was greater than 100 µM each time.

On to `O=CNCNCCO`, for which the TGI in the experiment on HCC-2998 colon, in the experiment with RXF 393 renal, in the experiment on TK-10 renal, with SR leukemia, with SNB-75 CNS and in the experiment with SNB-19 CNS was greater than 100 µM each time. In addition, the TGI in the experiment on SW-620 colon, in the experiment with NCI-H23 lung, in the experiment with SK-MEL-28 melanoma and with UACC-62 melanoma was greater than 100 µM throughout.
